From patent publication US5605928A, “Antiemetic compositions” (Yissum Research Development Company of The Hebrew …, priority 1992, dated 1997)
Entries after “also recorded” stand apart in the source; their conditions may differ. Like-named read-outs stand apart in the source and are kept apart here.

What was measured:
[1] = Acute oral toxicity, single doses, observed for 7 days; type: in vivo; settings: rat, in vivo; Fischer rats, male, single oral dose, observed 7 days; read-out: LD50, males
Fischer rats = test: as above; type: in vivo; settings: extremely high oral doses, delta-8- vs delta-9-THC
[2] = test system: vomiting and nausea in chemotherapy patients; settings: cited from earlier work
[3] = Acute oral toxicity, single doses; type: in vivo; settings: in vivo, single oral dose, read-out: LD50 (could not be determined; single oral doses up to this dose non lethal)
Protocol: (§1) LD50 could not be determined in either rhesus monkeys or dogs as single oral doses of up to 9000 mg/kg of either delta-8- or delta-9-THC in dogs or monkeys were non lethal.

dogs = test: Acute oral toxicity, single doses; type: in vivo; settings: single oral doses up to 9000 mg/kg
Protocol: as §1

rhesus monkeys = test: Acute oral toxicity, single doses; type: in vivo; settings: single oral doses up to 9000 mg/kg
Protocol: as §1

[4] = test system: vomiting due to antineoplastic therapy; test: Previous antiemetic treatment of patient 1 with Metoclopromide; type: in vivo, human; settings: patient 1, 0.3 mg/kg p.o. or i.v.
[5] = test system: vomiting due to antineoplastic therapy in children with various blood cancers; test: Antiemetic trial of delta-8-THC in 8 children receiving antineoplastic therapy (prevention of vomiting, side effects); type: in vivo, human (children)
Protocol: In a trial, with 8 children of 3 to 13 years age, with various blood cancers, treated with a variety of antineoplastic drugs, 18 mg/m^2, in edible oil, p.o. of delta-8-THC was given two hours before the antineoplastic drug, and repeated every 6 hours of 24 hours. […] So far these children have received Δ^8 -THC nearly 500 times (see Table).
Eight children with various blood cancers were administered delta-8-THC at a dose of 18 mg/m^2 p.o. two hours before the start of the anticancer treatment. The drug was dissolved in corn or olive oil (6 mg/ml). The same dose was repeated every 6 hrs for 24 hrs. Whenever additional cycles of antineoplastic therapy were required, delta-8-THC was administered following the same time procedure described above. Children received delta-8-THC only during days when emetogenic drugs were administered.
Established anticancer drug protocols were followed with all patients.
(§2) A study on vomiting due to antineoplastic therapy was carried out with 8 patients. Chemotherapy protocols of the types indicated in the Table almost invariable cause intense vomiting, which starts about 2 hrs after the initiation of chemotherapy and gradually ends over a 24 hr period. In preliminary trials we tried to end the antiemetic therapy after the first or second dose of the cannabinoid, i.e. after 6 or 12 hrs. […] In one case (patient) delta-8-THC therapy initially was refused. The patient experienced debilitating vomiting for 24 hrs after the antineoplastic treatment. During the second treatment cycle (which took place after 8 days), at the patient's family request, delta-8-THC treatment was initiated.
Our antiemetic protocol for cancer patients, to which we strictly adhere, consists of one dose of delta-8-THC (18 mg/m^2) 2 hours before chemotherapy, followed by the same dose every 6 hours for a total of 4 doses per day.

[6] = test system: vomiting due to antineoplastic therapy; test: Preliminary trials ending the antiemetic therapy after first or second dose; type: in vivo, human; settings: therapy ended after first or second dose, i.e. after 6 or 12 hrs
Protocol: as §2

[7] = Stability towards chemicals and oxidation, compared with delta-9-THC; type: physicochemical; settings: compared with delta-9 isomer
[8] = test system: vomiting and nausea in cancer therapy; test: Comparison of delta-8-THC with delta-9-THC for antiemetic use (effectiveness, side effects); type: in vivo, human; settings: compared with delta-9-THC
[9] = chemotherapy of cancer, treated patients

CCCCCc1cc(O)c2c(c1)OC(C)(C)[C@@H]1CCC(C)=C[C@@H]21 [delta-9-THC, delta-9-tetrahydro-cannabinol, reference compound]
LD50 at 168 h [1]: 1910 mg/kg
Histopathological changes (Fischer rats): essentially the same
Effect in the remaining patients ([2]; chemotherapy of cancer, the rest of treated patients): little or no effect
Patients in whom vomiting and nausea is prevented [2, 9]: 20 to 30 per cent
Patients in whom vomiting and nausea symptoms are reduced [2, 9]: 40 to 50 per cent
Pronounced side effects ([2]; treated patients, pronounced with elderly patients): drowsiness, dizziness and in some cases--anxiety
Side effects in younger patients ([2]; younger patients): mainly mood changes
LD50 ([3]; dog, dogs): > 9000 mg/kg
LD50 ([3]; rhesus monkey, rhesus monkeys): > 9000 mg/kg
Histopathological alterations (dogs): did not occur
Histopathological alterations (rhesus monkeys): did not occur

CCN(CC)CCNC(=O)c1cc(Cl)c(N)cc1OC [Metoclopromide]
Prevention of vomiting [4]: failed to

CCCCCc1cc(O)c2c(c1)OC(C)(C)[C@@H]1CC=C(C)C[C@@H]21 [delta-8-THC]
Prevention of vomiting ([5]; 8 children, 18 mg/m^2 p.o. in edible oil 2 h before antineoplastic drug, repeated every 6 h for 24 h): completely prevented; also recorded: no emesis was noted; also recorded: prevention of vomiting was complete
Effect of antiemetic treatments: side effects per patient ([5]; Table, individual child, 18 mg/m^2): no side effects; also recorded: slight irritability; also recorded: euphoria
Anxiety or hallucinogenic effects ([5]; children, 18 mg/m^2 p.o.): No anxiety or hallucinogenic effects were noted
Side effects (overall) ([5]; children, 18 mg/m^2 p.o., every 6 h for 24 h): negligible side effects; also recorded: minor: some irritability as slight euphoria; also recorded: without the occurrence of major side effects
Vomiting in patient, second treatment cycle ([5]; delta-8-THC initiated at second cycle after refusal in first cycle, 18 mg/m^2 p.o.): No vomiting occurred
LD50 at 168 h [1]: 1980 mg/kg
Histopathological changes (Fischer rats): essentially the same
Vomiting after ending antiemetic therapy early [6]: Vomiting started in most cases
LD50 ([3]; dog, dogs): > 9000 mg/kg
LD50 ([3]; rhesus monkey, rhesus monkeys): > 9000 mg/kg
Histopathological alterations (dogs): did not occur
Histopathological alterations (rhesus monkeys): did not occur
Proneness to oxidation [7]: less prone to oxidation
Stability towards various chemicals [7]: considerably more stable
Effectiveness for the intended (antiemetic) use [8]: at least as effective
Side-effects ([8]; especially in pediatric medicine): considerably reduced side-effects
